# Test results reported in patent US20070249725A1, “Pharmaceutical formulations of sympathetic antagonist for the treatment of chronic muscle pain” (priority 2006, published 2007).
# Where a name gives a salt, the structure may show the parent alone.
# Experiment: Adverse events in subjects treated by trigger point injection (Example 1)
# Format: in vivo, human
# Experimental: A total of 326 male and female subjects, approximately 15 to 85 years old with pain of 4-72 month duration were treated with various doses of phenoxybenzamine. If a potential subject had pain that was clearly muscular and clearly not due to arthritis, nerve root compression or other extramuscular cause, the subject was considered a candidate for phenoxybenzamine hydrochloride injection. Trigger points were identified by palpation. A monopolar EMG needle was then inserted into the trigger point. Another monopolar EMG needle was inserted into a nearby nontender fibers of the same muscle. […] The treatment was repeated in up to 10-12 trigger points per treatment session. Subjects could return for up to 6 treatment sessions, depending on the extent of their pain. The initial treatment was with a dose of 25 mg of phenoxybenzamine hydrochloride in an injection volume of 2 ml. […] For 318 subjects, data were available for analysis for the doses of phenoxybenzamine hydrochloride used, efficacy and incidence of serious adverse events.
# The frequencies of other adverse events occurring in the first 199 subjects treated, including the first 87 subjects treated with the 3 mg dose, are given in the table below. Results with an additional 131 subjects treated with the 3 mg dose have been similar.
# [1] = 10-25 mg, single injection, N 23
compound,measurement,setting,value
"CC(COc1ccccc1)N(CCCl)Cc1ccccc1 (stereo not shown) [Phenoxybenzamine Hydrochloride, phenoxybenzamine hydrochloride]","Burning, number of subjects",[1],1
same,"Cold sensation, % of subjects",[1],(4%)
same,"Cold sensation, number of subjects",[1],1
same,"Diaphoresis, % of subjects",[1],(0%)
same,"Diarrhea, % of subjects",[1],(0%)
same,"Dizziness, % of subjects",[1],(0%)
same,"Dry mouth, % of subjects",[1],(0%)
same,"Dysphagia, % of subjects",[1],(4%)
same,"Dysphagia, number of subjects",[1],1
same,"Dyspnea, % of subjects",[1],(0%)
same,"Epistaxis, % of subjects",[1],(4%)
same,"Epistaxis, number of subjects",[1],1
same,"Fatigue, % of subjects",[1],(4%)
same,"Fatigue, number of subjects",[1],1
same,"Fever, % of subjects",[1],(0%)
same,"Flu syndrome, % of subjects",[1],(0%)
same,"Hair disorder, % of subjects",[1],(0%)
same,"Headache, % of subjects",[1],(0%)
same,"Hypesthesia, % of subjects",[1],(9%)
same,"Hypesthesia, number of subjects",[1],2
same,"Injection site drainage, % of subjects",[1],(0%)
same,"Injection site soreness, % of subjects",[1],(35%)
same,"Injection site soreness, number of subjects",[1],8
same,"Injection site swelling, % of subjects",[1],26%
same,"Injection site swelling, number of subjects",[1],6
same,"Lethargy, % of subjects",[1],(0%)
same,"Lightheadedness, % of subjects",[1],(4%)
same,"Lightheadedness, number of subjects",[1],1
same,"Nasal disorder, % of subjects",[1],(9%)
same,"Nasal disorder, number of subjects",[1],2
same,"Nausea, % of subjects",[1],(0%)
same,"Pain, % of subjects",[1],(26%)
same,"Pain, number of subjects",[1],6
same,"Palpitations, % of subjects",[1],(0%)
same,"Paresthesia, % of subjects",[1],(0%)
same,"Pharyngitis, % of subjects",[1],(0%)
same,"Pruritis, % of subjects",[1],(0%)
same,"Rash, % of subjects",[1],4%
same,"Rash, number of subjects",[1],1
same,"Stiffness, % of subjects",[1],(13%)
same,"Stiffness, number of subjects",[1],3
same,"Swelling, % of subjects",[1],(0%)
same,"Syncope, % of subjects",[1],(0%)
same,"Tachycardia, % of subjects",[1],(4%)
same,"Tachycardia, number of subjects",[1],1
same,"Taste disorder, % of subjects",[1],(4%)
same,"Taste disorder, number of subjects",[1],1
same,"Tremor, % of subjects",[1],(0%)
same,"Vomiting, % of subjects",[1],(0%)
same,"Bruising at injection site, % of subjects","Total of all doses, N 199",(6%)
same,"Bruising at injection site, number of subjects","Total of all doses, N 199",11
same,"Burning, % of subjects","Total of all doses, N 199",(2%)
same,"Burning, number of subjects","Total of all doses, N 199",4
same,"Cold sensation, % of subjects","Total of all doses, N 199",(1%)
same,"Cold sensation, number of subjects","Total of all doses, N 199",2
same,"Diaphoresis, % of subjects","Total of all doses, N 199",(0%)
same,"Diaphoresis, number of subjects","Total of all doses, N 199",1
same,"Diarrhea, % of subjects","Total of all doses, N 199",(1%)
same,"Diarrhea, number of subjects","Total of all doses, N 199",2
same,"Dizziness, % of subjects","Total of all doses, N 199",(11%)
same,"Dizziness, number of subjects","Total of all doses, N 199",21
same,"Dry mouth, % of subjects","Total of all doses, N 199",(0%)
same,"Dry mouth, number of subjects","Total of all doses, N 199",1
same,"Dysphagia, % of subjects","Total of all doses, N 199",(0%)
same,"Dysphagia, number of subjects","Total of all doses, N 199",1
same,"Dyspnea, % of subjects","Total of all doses, N 199",(2%)
same,"Dyspnea, number of subjects","Total of all doses, N 199",4
same,"Epistaxis, % of subjects","Total of all doses, N 199",(0%)
same,"Epistaxis, number of subjects","Total of all doses, N 199",1
same,"Fatigue, % of subjects","Total of all doses, N 199",(4%)
same,"Fatigue, number of subjects","Total of all doses, N 199",8
same,"Fever, % of subjects","Total of all doses, N 199",(0%)
same,"Fever, number of subjects","Total of all doses, N 199",1
same,"Flu syndrome, % of subjects","Total of all doses, N 199",(1%)
same,"Flu syndrome, number of subjects","Total of all doses, N 199",2
same,"Hair disorder, % of subjects","Total of all doses, N 199",(0%)
same,"Hair disorder, number of subjects","Total of all doses, N 199",1
same,"Headache, % of subjects","Total of all doses, N 199",(6%)
same,"Headache, number of subjects","Total of all doses, N 199",12
same,"Hypesthesia, % of subjects","Total of all doses, N 199",(3%)
same,"Hypesthesia, number of subjects","Total of all doses, N 199",6
same,"Injection site drainage, % of subjects","Total of all doses, N 199",(1%)
same,"Injection site drainage, number of subjects","Total of all doses, N 199",2
same,"Injection site soreness, % of subjects","Total of all doses, N 199",(30%)
same,"Injection site soreness, number of subjects","Total of all doses, N 199",59
same,"Injection site swelling, % of subjects","Total of all doses, N 199",33%
same,"Injection site swelling, number of subjects","Total of all doses, N 199",66
same,"Lethargy, % of subjects","Total of all doses, N 199",(0%)
same,"Lethargy, number of subjects","Total of all doses, N 199",1
same,"Lightheadedness, % of subjects","Total of all doses, N 199",(7%)
same,"Lightheadedness, number of subjects","Total of all doses, N 199",13
same,"Nasal disorder, % of subjects","Total of all doses, N 199",(2%)
same,"Nasal disorder, number of subjects","Total of all doses, N 199",4
same,"Nausea, % of subjects","Total of all doses, N 199",(9%)
same,"Nausea, number of subjects","Total of all doses, N 199",18
same,"Pain, % of subjects","Total of all doses, N 199",(5%)
same,"Pain, number of subjects","Total of all doses, N 199",10
same,"Palpitations, % of subjects","Total of all doses, N 199",(0%)
same,"Palpitations, number of subjects","Total of all doses, N 199",1
same,"Paresthesia, % of subjects","Total of all doses, N 199",(2%)
same,"Paresthesia, number of subjects","Total of all doses, N 199",3
same,"Pharyngitis, % of subjects","Total of all doses, N 199",(0%)
same,"Pharyngitis, number of subjects","Total of all doses, N 199",1
same,"Pruritis, % of subjects","Total of all doses, N 199",(0%)
same,"Pruritis, number of subjects","Total of all doses, N 199",1
same,"Rash, % of subjects","Total of all doses, N 199",2%
same,"Rash, number of subjects","Total of all doses, N 199",3
same,"Stiffness, % of subjects","Total of all doses, N 199",(3%)
same,"Stiffness, number of subjects","Total of all doses, N 199",6
same,"Swelling, % of subjects","Total of all doses, N 199",(1%)
same,"Swelling, number of subjects","Total of all doses, N 199",2
same,"Syncope, % of subjects","Total of all doses, N 199",(3%)
same,"Syncope, number of subjects","Total of all doses, N 199",6
same,"Tachycardia, % of subjects","Total of all doses, N 199",(0%)
same,"Tachycardia, number of subjects","Total of all doses, N 199",1
same,"Taste disorder, % of subjects","Total of all doses, N 199",(2%)
same,"Taste disorder, number of subjects","Total of all doses, N 199",4
same,"Tremor, % of subjects","Total of all doses, N 199",(1%)
same,"Tremor, number of subjects","Total of all doses, N 199",2
same,"Vomiting, % of subjects","Total of all doses, N 199",(4%)
same,"Vomiting, number of subjects","Total of all doses, N 199",7
